Results as given in patent US7947284B2, “Purified component of blue-green algae and method of use” (Desert Lake Technologies, priority 2005, dated 2011).

Test system: CXCR4 expression on the human CD34+ cell line KG-1a
Assay: Fucoidan-induced CXCR4 expression on KG-1a cells (flow cytometry)
Format: cell-based
Settings: KG-1a incubated with the agonist alone
Description: Immunostaining for CXCR4 expression induced by L-selectin ligands: The binding of Fucoidan to L-selectin results in externalization of pre-made CXCR4 onto the cell surface, followed by internalization, creating a window in time for responsiveness to chemotactic factors. This system was used to examine whether AFA-W would compete with Fucoidan for binding to L-selectin on the leukocyte cell surface, and to assess whether it would block this functional effect from another L-selectin ligand. To do so, freshly purified human PBMC were resuspended in RPMI, and distributed in a series of round-bottom microwells. Fucoidan was added to one series of wells, AFA-W to another series, and a mixture of Fucoidan and AFA-W was added to the third series of wells. […] Cells were washed in phosphate-buffered saline containing azide, stained with CXCR4-PE using the staining protocol described above, fixed in formalin, and analyzed by flow cytometry.
The primitive cell line KG-1a is brightly positive for CD34 and for L-selectin, as evaluated by staining with the TQ1 monoclonal antibody. […]
The expression of CXCR4 receptors following exposure to fucoidan was evaluated on lymphocytes using flow cytometry.

Fucoidan
effect on expression of the chemokine receptor CXCR4: triggers the expression
